Test results reported in patent publication US12496285B2, “Compositions and methods using at least one glycine or derivative thereof, at least one N-acetylcysteine or derivative thereof, and at least one nicotinamide riboside or NAD+ precursor” (SOCIETE DES PRODUITS NESTLE S.A., priority 2018, dated 2025).

System: mitochondrial respiration
Test: High-resolution respirometry of isolated muscle mitochondria from adult zebrafish after menadione-induced acute oxidative stress
Format: in vivo
Details: 3 uM menadione 2 h then 2 h treatment, low doses: NAC 100 uM + glycine 100 uM (GlyNAC) or NR 50 uM, single treatments
Description: FIG. 1. Effect of the combination of NAC, glycine and NR on the mitochondrial respiration. High-resolution respirometry of isolated mitochondria from muscle of adult zebrafish (N=5-6/condition). Acute oxidative stress was induced with a 2 h-treatment with menadione (Men). Rescue of the respiration was assessed with a treatment of 2 h with low doses of […] 100 uM, glycine 100 uM) and low dose of NR (50 uM). Data of respiration measurements are shown in 1A. Theoretical additive effect (Δ[…]) has been calculated as the sum of the mean of […] and NR and have been compared to the synergistic effect (Δ[…]). […] After BCA quantification of protein concentration, 150 ug of crude extract were used for high-resolution respirometry quantification. […] Respiration of isolated mitochondria was determined using substrate-uncoupler-inhibitor titration (SUIT) protocols (Pesta and […], 2012) with modifications. […] CI respiration was calculated as the difference between total respiration (CI+CII) and the addition of CI inhibitor rotenone (0.5 uM); CII respiration was calculated as the difference between inhibited CI respiration and the addition of CII inhibitor malonic acid (5 mM). Total respiration (CI+CII, Tot resp) was assessed as the difference of the respiration in presence of all substrates and the total inhibition of CI and CII. All numerical data are expressed as mean±SEM and reported as histograms. […]

## NC(=O)c1ccc[n+]([C@@H]2O[C@H](CO)[C@@H](O)[C@H]2O)c1 [NR, nicotinamide riboside]
  effect on mitochondrial respiration when used alone: do not show any significant effect when used alone
